In patent US20110301143A1, “HETEROCYCLIC DERIVATIVES AS INHIBITORS OF STEAROYL-COENZYME A DELTA-9 DESATURASE” (priority 2009, published 2011) one finds IC50 data, which are given here for 55 compounds.

One may read the IC50 as the concentration that gives 50% inhibition. A higher IC50 goes with lower potency.

For the assay, the target named is T1, human SCD1 (hSCD-1) (Homo sapiens, UniProt O00767).
T1 construct: made in house; host or cells: baculovirus/Sf9 insect cells
T1 sequence (O00767 1-359): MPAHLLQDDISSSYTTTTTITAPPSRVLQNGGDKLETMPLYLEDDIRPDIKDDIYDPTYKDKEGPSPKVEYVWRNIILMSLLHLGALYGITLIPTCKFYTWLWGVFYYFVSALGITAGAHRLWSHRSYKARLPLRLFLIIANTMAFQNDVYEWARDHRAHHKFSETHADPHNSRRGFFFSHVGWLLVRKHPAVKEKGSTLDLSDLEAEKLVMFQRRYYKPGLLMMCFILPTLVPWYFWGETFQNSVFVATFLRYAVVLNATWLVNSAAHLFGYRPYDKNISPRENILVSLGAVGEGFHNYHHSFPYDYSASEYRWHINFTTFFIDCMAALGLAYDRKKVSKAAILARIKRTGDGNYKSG
Nature of the assay: SCD enzyme activity assay, reconstituted human SCD1 (conversion of radiolabeled stearoyl-CoA to oleoyl-CoA). It counts as biochemical. Particulars: human SCD-1. As to the method: The potency of compounds of formula I against the stearoyl-CoA desaturase was determined by measuring the conversion of radiolabeled stearoyl-CoA to oleoyl-CoA using rat liver microsome or human SCD1 (hSCD-1) following previously published procedures with some modifications (Joshi, et al., J. Lipid Res., 18: 32-36 (1977); Talamo, et al., Anal. Biochem, 29: 300-304 (1969)). Liver microsome was prepared from male Wistar or Sprague Dawley rats on a high carbohydrate diet for 3 days (LabDiet # 5803, Purina). The livers were homogenized (1:10 w/v) in a buffer containing 250 mM sucrose, 1 mM EDTA, 5 mM DTT and 50 mM Tris-HCl (pH 7.5). After a 100,000×g centrifugation for 60 min, the liver microsome pellet was suspended in a buffer containing 100 mM sodium phosphate, 20% glycerol, 2 mM DTT, and stored at −78° C. Human SCD1 desaturase system was reconstituted using human SCD1 from a baculovirus/Sf9 expression system, cytochrome B5 and cytochrome B5 reductase. Typically, test compound in 2 μL DMSO was incubated for 15 min at room temperature with 180 μL of the SCD enzyme in a buffer containing 100 mM Tris-HCl (pH 7.5), ATP (5 mM), Coenzyme-A (0.1 mM), Triton X-100 (0.5 mM) and NADH (2 mM). The reaction was initiated by the addition of 20 μL of [^3H]-stearoyl-CoA (final concentration=2 μM, radioactivity concentration=1 μCi/mL). After 10 min, the reaction mixture (80 μL) was mixed with a calcium chloride/charcoal aqueous suspension (100 μl, charcoal (10% w/v) plus 25 μL CaCl2 (2N). After centrifugation to precipitate the radioactive fatty acid species, tritiated water released from 9,10-[^3H]-stearoyl-CoA by the SCD enzyme was quantified on a scintillation counter.
`CCc1ccc(Cl)cc1C(=O)C1CCN(c2cc(-c3nnn(CC(=O)O)n3)on2)CC1` returned an IC50 of under 20 nM.
Compound `O=C(O)Cn1nnc(-c2cc(N3CCC(C(=O)c4cc(Br)ccc4Br)CC3)no2)n1` showed an IC50 of under 20 nM.
`O=C(O)Cn1nnc(-c2cc(N3CCC(C(=O)c4ccc(F)cc4Cl)CC3)no2)n1`: the 50% inhibitory concentration (IC50) is 50 nM.
The figure for `O=C(O)Cn1nnc(-c2cc(N3CCC(C(=O)c4cc(Cl)ccc4C(F)F)CC3)no2)n1` is under 20 nM; for `O=C(O)Cn1nnc(-c2cnc(N3CCCN(c4ccccc4C(F)(F)F)CC3)s2)n1` it is 30 nM.
As for `O=C(O)Cn1nnc(-c2cnc(N3CCC(C(=O)c4cc(F)ccc4Cl)CC3)nc2)n1`, the figure is 46 nM; as for `O=C(O)Cn1nnc(-c2cnc(N3C[C@@H]4C[C@H]3CN4c3cccc(Cl)c3)s2)n1`, under 20 nM.
As for `O=C(O)Cn1nnc(-c2cc(N3CCN(C(=O)c4cc(C(F)(F)F)ccc4Cl)CC3)no2)n1`, the figure is 24 nM; as for `O=C(O)Cn1nnc(-c2cc(N3CCC(C(=O)c4cc(F)ccc4CC4CC4)CC3)no2)n1`, under 20 nM; as for `CC(C)(F)c1ccccc1C(=O)C1CCN(c2cc(-c3nnn(CC(=O)O)n3)on2)CC1`, under 20 nM.
`CCC(C)c1ccc(F)cc1C(=O)C1CCN(c2cc(-c3nnn(CC(=O)O)n3)on2)CC1` (stereo not shown) [drawing 70] came in with a concentration for half-maximal inhibition (IC50) of under 20 nM.
As for `O=C(O)Cn1nnc(-c2cnc(N3CCN(c4cccc(OC(F)(F)F)c4)CC3)s2)n1`, the figure is under 20 nM; as for `Cc1ccc(C(F)(F)F)cc1C(=O)C1CCN(c2cc(-c3nnn(CC(=O)O)n3)on2)CC1`, 48 nM.
The figure for `O=C(O)Cn1nnc(-c2cc(N3CCC(C(=O)c4ccccc4Br)CC3)no2)n1` is 28 nM; for `O=C(O)Cn1nnc(-c2cc(N3CCC(C(=O)c4cc(F)ccc4C4CC4)CC3)no2)n1` it is under 20 nM; for `O=C(O)Cn1nnc(-c2cc(N3CCN(c4cccc(C(F)(F)F)c4)CC3)no2)n1` it is 83 nM.
The figure for `CC1(c2ccccc2C(=O)C2CCN(c3cc(-c4nnn(CC(=O)O)n4)on3)CC2)CC1` is under 20 nM.
In turn, `O=C(O)Cn1nnc(-c2cc(N3CCC(C(=O)c4cc(C(F)(F)F)ccc4C(F)(F)F)CC3)no2)n1` yielded an IC50 of under 20 nM.
As for `O=C(O)Cn1nnc(-c2cnc(N3CCC(C(=O)c4cc(F)ccc4C(F)(F)F)CC3)nc2)n1`, the figure is 27 nM; as for `O=C(O)Cn1nnc(-c2cc(N3CCC(C(=O)c4cc(F)ccc4C4CCC4)CC3)no2)n1`, under 20 nM.
As for `O=C(O)Cn1nnc(-c2cc(N3CCC(C(=O)c4cc(F)ccc4Br)CC3)no2)n1`, the figure is under 20 nM.
As for `O=C(O)Cn1nnc(-c2cnc(N3CCC(C(=O)c4cc(Cl)ccc4Cl)CC3)nc2)n1`, the figure is 58 nM.
With `O=C(O)Cn1nnc(-c2cnc(N3CCCN(c4cc(F)ccc4Cl)CC3)s2)n1`, the half-maximal inhibitory concentration (IC50) is 29 nM.
Turning to `CCC(C)c1ccc(F)cc1C(=O)C1CCN(c2cc(-c3nnn(CC(=O)O)n3)on2)CC1` (stereo not shown) [drawing 71], the half-maximal inhibitory concentration (IC50) is under 20 nM.
The figure for `O=C(O)Cn1nnc(-c2cc(N3CCC(C(=O)c4ccccc4OC(F)(F)F)CC3)no2)n1` is 66 nM.
As for `O=C(O)Cn1nnc(-c2cnc(N3CCN(c4cc(Cl)ccc4F)CC3)s2)n1`, the figure is under 20 nM.
The figure for `O=C(O)Cn1nnc(-c2cnc(N3CCN(c4cc(F)ccc4Cl)CC3)s2)n1` is under 20 nM; for `O=C(O)Cn1nnc(-c2cc(N3CCC(C(=O)c4cc(F)ccc4C(F)F)CC3)no2)n1` it is under 20 nM; for `CCCc1ccc(Cl)cc1C(=O)C1CCN(c2cc(-c3nnn(CC(=O)O)n3)on2)CC1` it is 23 nM.
For `O=C(O)Cn1nnc(-c2cnc(N3CCN(c4cc(C(F)(F)F)cc(C(F)(F)F)c4)CC3)nc2)n1`, half-maximal inhibition (IC50) was put at 44 nM.
As for `O=C(O)Cn1nnc(-c2cnc(N3CCC(C(=O)c4cc(OC(F)(F)F)ccc4Cl)CC3)nc2)n1`, the figure is under 20 nM.
As for `CCc1ccc(F)cc1C(=O)C1CCN(c2cc(-c3nnn(CC(=O)O)n3)on2)CC1`, the figure is under 20 nM.
Consider `O=C(O)Cn1nnc(-c2cc(N3CCC(C(=O)c4cc(Cl)ccc4Br)CC3)no2)n1`, for which the half-maximal inhibitory concentration (IC50) is under 20 nM.
Consider `O=C(O)Cn1nnc(-c2cc(N3CCC(C(=O)c4ccccc4OC(F)F)CC3)no2)n1`, for which the IC50 stood at 40 nM.
The figure for `Cc1ccc(F)cc1C(=O)C1CCN(c2cc(-c3nnn(CC(=O)O)n3)on2)CC1` is 20 nM.
The figure for `O=C(O)Cn1nnc(-c2cnc(N3CCN(c4ccccc4C(F)(F)F)CC3)s2)n1` is under 20 nM; for `O=C(O)Cn1nnc(-c2cnc(N3CCC(C(=O)c4ccccc4C(F)(F)F)CC3)s2)n1` it is under 20 nM; for `O=C(O)Cn1nnc(-c2cc(N3CCC(C(=O)c4cc(F)ccc4C(F)(F)F)CC3)no2)n1` it is under 20 nM.
The figure for `Cc1ccc(Cl)cc1C(=O)C1CCN(c2cc(-c3nnn(CC(=O)O)n3)on2)CC1` is 28 nM; for `O=C(O)Cn1nnc(-c2cc(N3CCN(c4cc(F)ccc4Cl)CC3)no2)n1` it is 35 nM.
`CC1(c2ccc(F)cc2C(=O)C2CCN(c3cc(-c4nnn(CC(=O)O)n4)on3)CC2)CC1` yielded an IC50 of under 20 nM.
As for `COc1ccc(OC(F)(F)F)cc1C(=O)C1CCN(c2cc(-c3nnn(CC(=O)O)n3)on2)CC1`, the figure is 85 nM; as for `O=C(O)Cn1nnc(-c2cnc(N3C[C@@H]4C[C@H]3CN4c3cc(F)ccc3Cl)s2)n1`, under 20 nM.
As for `O=C(O)Cn1nnc(-c2cnc(N3CCN(c4cc(C(F)(F)F)ccc4Cl)CC3)s2)n1`, the figure is under 20 nM; as for `O=C(O)Cn1nnc(-c2cc(N3CCC(C(=O)c4ccccc4C(F)(F)F)CC3)no2)n1`, under 20 nM.
As for `O=C(O)Cn1nnc(-c2cc(N3CCN(C(=O)c4cccc(OC(F)(F)F)c4)CC3)no2)n1`, the figure is under 20 nM; as for `O=C(O)Cn1nnc(-c2cc(N3CCC(C(=O)c4cc(Cl)ccc4C(F)(F)F)CC3)no2)n1`, 32 nM.
As to `O=C(O)Cn1nnc(-c2cc(N3CCC(C(=O)c4cc(C(F)(F)F)ccc4Cl)CC3)no2)n1`, the half-inhibitory concentration (IC50) is 22 nM.
As for `O=C(O)Cn1nnc(-c2cc(N3CCC(C(=O)c4cc(Cl)ccc4Cl)CC3)no2)n1`, the figure is 31 nM.
Consider `O=C(O)Cn1nnc(-c2cnc(N3CCC(c4cccc(C(F)(F)F)c4)CC3)s2)n1`, for which the half-inhibitory concentration (IC50) is under 20 nM.
The figure for `O=C(O)Cn1nnc(-c2cc(N3CCC(C(=O)c4cc(F)ccc4Cl)CC3)no2)n1` is under 20 nM; for `O=C(O)Cn1nnc(-c2cnc(N3CC=C(c4ccccc4C(F)(F)F)CC3)s2)n1` it is under 20 nM; for `COc1ccc(Cl)c(C(=O)C2CCN(c3cc(-c4nnn(CC(=O)O)n4)on3)CC2)c1` it is 95 nM.
Turning to `Cc1ccc(Cl)c(C(=O)C2CCN(c3cc(-c4nnn(CC(=O)O)n4)on3)CC2)c1`, the IC50 amounted to 79 nM.
The figure for `CCC(C)c1ccccc1C(=O)C1CCN(c2cc(-c3nnn(CC(=O)O)n3)on2)CC1` (stereo not shown) is under 20 nM.
